Legend:
Experiment in all cases: relative viability (nuclei count vs DMSO), 5 days (fraction); higher = more cells survive
[1] = compound: C[C@@]1(C(=O)Nc2ccc(F)nc2)CCCN1c1nc(Nc2cc(C3CC3)n[nH]2)c2cccn2n1 + N=C(N)NC(=N)NCCc1ccccc1 [Phenformin] (partner 250 µM)
Outline: (§1)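 Each reported value is a median over duplicate plates. It expresses relative viability: treated-well nuclei count divided by vehicle-well nuclei count. Lung cancer cell lines in 1536-well plates were dosed by pin tool a day after seeding, alone with one drug or with a fixed anchor-drug dose plus five library-drug doses (not always all listed) in √10 steps, and nuclei were counted after 5 days.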

Motesanib + Pictilisib = compound: CC1(C)CNc2cc(NC(=O)c3cccnc3NCc3ccncc3)ccc21 [Motesanib] + CS(=O)(=O)N1CCN(Cc2cc3nc(-c4cccc5[nH]ncc45)nc(N4CCOCC4)c3s2)CC1 [Pictilisib] (partner 1 µM)
Outline: as §1

Motesanib + Trametinib = compound: CC1(C)CNc2cc(NC(=O)c3cccnc3NCc3ccncc3)ccc21 [Motesanib] + CC(=O)Nc1cccc(-n2c(=O)n(C3CC3)c(=O)c3c(Nc4ccc(I)cc4F)n(C)c(=O)c(C)c32)c1 [Trametinib] (partner 0.02 µM)
Outline: as §1

Motesanib + AZD7762 = compound: CC1(C)CNc2cc(NC(=O)c3cccnc3NCc3ccncc3)ccc21 [Motesanib] + NC(=O)Nc1cc(-c2cccc(F)c2)sc1C(=O)N[C@H]1CCCNC1 [AZD7762] (partner 0.2 µM)
Outline: as §1

Row | Cell Line | relative viability ([1]; first compound 0.04 µM) | relative viability ([1]; first compound 0.1265 µM) | relative viability ([1]; first compound 0.4 µM) | relative viability ([1]; first compound 1.265 µM) | relative viability (Motesanib + Pictilisib; first compound 0.01 µM) | relative viability (Motesanib + Pictilisib; first compound 0.03162 µM) | relative viability (Motesanib + Pictilisib; first compound 0.1 µM) | relative viability (Motesanib + Pictilisib; first compound 0.3162 µM) | relative viability (Motesanib + Pictilisib; first compound 1 µM) | relative viability (Motesanib + Trametinib; first compound 0.01 µM) | relative viability (Motesanib + Trametinib; first compound 0.03162 µM) | relative viability (Motesanib + Trametinib; first compound 0.1 µM) | relative viability (Motesanib + Trametinib; first compound 0.3162 µM) | relative viability (Motesanib + Trametinib; first compound 1 µM) | relative viability (Motesanib + AZD7762; first compound 0.01 µM) | relative viability (Motesanib + AZD7762; first compound 0.03162 µM) | relative viability (Motesanib + AZD7762; first compound 0.1 µM) | relative viability (Motesanib + AZD7762; first compound 0.3162 µM) | relative viability (Motesanib + AZD7762; first compound 1 µM)
1 | HCC-366 | 0.66 | 0.54 | 0.596 | 0.186 | 0.145 | 0.149 | 0.139 | 0.139 | 0.137 | 0.396 | 0.302 | 0.282 | 0.385 | 0.334 | 0.278 | 0.214 | 0.46 | 0.248 | 0.207
2 | BEN | 0.291 | 0.229 | 0.272 | 0.281 | 0.517 | 0.618 | 0.624 | 0.579 | 0.715 | 0.996 | 1.01 | 0.983 | 1.01 | 1.1 | 0.617 | 0.877 | 0.645 | 0.576 | 0.799
3 | NCI-H23 | 0.703 | 0.648 | 0.533 | 0.704 | 0.415 | 0.41 | – | 0.562 | 0.53 | 0.392 | 0.341 | 0.37 | 0.432 | 0.382 | 0.194 | 0.227 | 0.186 | 0.195 | 0.244
4 | NCI-H1395 | 0.428 | 0.42 | 0.5 | 0.481 | 0.61 | 0.566 | 0.609 | 0.646 | 0.703 | 0.98 | 0.977 | 1.06 | 1.04 | 1.19 | 0.387 | 0.372 | 0.39 | 0.405 | 0.399
5 | 201T | 0.346 | 0.355 | 0.32 | 0.36 | 0.671 | 0.688 | 0.68 | 0.679 | 0.71 | 0.743 | 0.71 | 0.736 | 0.722 | 0.742 | 0.592 | 0.617 | 0.734 | 0.637 | 0.672
6 | NCI-H2170 | 0.432 | 0.396 | 0.419 | 0.357 | 0.278 | 0.347 | 0.294 | 0.331 | 0.344 | 0.861 | 0.872 | 0.91 | 0.909 | 0.979 | 0.871 | 0.865 | 0.82 | 0.75 | 0.755
7 | NCI-H460 | 0.53 | 0.436 | 0.36 | 0.239 | 0.356 | 0.424 | 0.302 | 0.364 | 0.493 | 0.139 | 0.104 | 0.209 | 0.179 | 0.142 | 0.56 | 0.633 | 0.772 | 0.653 | 0.611
8 | HCC-15 | 0.387 | 0.209 | 0.27 | 0.259 | 0.786 | 0.729 | 0.653 | 0.848 | 0.747 | 0.377 | 0.335 | 0.364 | 0.406 | 0.376 | 1.34 | 1.18 | 1.06 | 1.36 | 1.33
9 | LCLC-103H | 0.343 | 0.309 | 0.253 | 0.28 | – | 0.613 | 0.542 | 0.639 | 0.709 | 0.674 | 0.707 | 0.659 | 0.744 | 0.682 | 0.802 | 0.743 | 0.781 | 0.825 | 0.829
10 | NCI-H441 | 0.405 | 0.35 | 0.369 | 0.264 | 0.414 | 0.524 | 0.518 | 0.441 | 0.506 | 0.41 | 0.435 | 0.463 | 0.577 | 0.472 | 0.97 | 1.2 | 1.1 | 1.01 | 0.954
11 | EPLC-272H | 0.315 | – | 0.251 | 0.275 | 0.296 | 0.176 | 0.267 | 0.317 | 0.309 | 0.287 | 0.289 | 0.286 | 0.299 | 0.341 | 0.145 | 0.268 | 0.151 | 0.21 | 0.267

From the supplement of paper PMC10307832
